Source: patent publication US20060228388A1, “Method for controlling an insect species using a synthetic trail pheromone mimic” (priority 2005, published 2006)

Experiments:
tent caterpillars = assay: Threshold sensitivity to a narrow line of compound on a paper card; assay type: in vivo, Malacosoma spp.; conditions: compound laid out in a narrow line on a paper card
Description: (§1) The threshold sensitivity of tent caterpillars to 5β-cholestan-3-one laid out in a narrow line on a paper card was determined to be approximately 10^−11 g/mm. Field tests were conducted by using the compound to form artificial trails that intersected well established, authentic trunk trails of colonies of 3rd-5th instar ETCs. In 19 of 23 replicates of these tests, each involving a different colony, colonies abandoned their authentic trail systems and followed the pathways marked with 5β-cholestan-3-one. […] Other studies indicate that the authentic trail pheromone of the tent caterpillar (Malacosoma spp.) may differ subtly from 5β-cholestan-3-one. Thus, 5β-cholestan-3-one is best considered an analog, or pheromone mimic of the authentic tent caterpillar pheromone.

[1] = system: forest tent caterpillar colonies; assay: Field colony disruption by blanket spraying trees with pheromone-mimic; assay type: in vivo, Malacosoma disstria; conditions: third experiment; ash trees; 1 ppm spray; within one week
Description: (§2) Three experiments were conducted, all employing the following protocol. Trees in the experimental plot were divided into two groups. Trees in one group were sprayed with a 1 part per million (ppm) pheromone-mimic formulation and trees in another group were sprayed with a control solution identical to the pheromone mimic formulation except that it lacked the pheromone-mimic. Egg masses were attached to each tree and the fate of the colonies determined by observation.
(§3) In the second experiment, ten control colonies of the eastern tent caterpillar on apple trees survived and thrived while all of ten colonies on treated trees were destroyed within one week. […] While the exact fate of caterpillars on the treated trees is unknown, they most likely succumbed to a combination of weather related factors, starvation, predation, and falls from the trees.

[2] = system: eastern tent caterpillar colonies; assay: as above; assay type: in vivo, Malacosoma americanum
Description: as §2, §3

[3] = system: colonies of 3rd-5th instar ETCs; assay: Field test: artificial trails intersecting authentic trunk trails of colonies; assay type: in vivo, Malacosoma americanum
Description: as §1

Compound: CC(C)CCC[C@@H](C)[C@H]1CC[C@H]2[C@@H]3CC[C@@H]4CC(=O)CC[C@]4(C)[C@H]3CC[C@]12C [5β-cholestan-3-one]
- threshold sensitivity of tent caterpillars (tent caterpillars): approximately 10^−11 g/mm
- colonies on treated trees perished [1]: all of fifteen
- fate of the remaining treated colonies ([2]; first experiment, cherry trees, 1 ppm spray, three remaining colonies): eventually died out
- treated colonies completely destroyed ([2]; first experiment, cherry trees, 1 ppm spray, within several days): seven of ten
- colonies on treated trees destroyed ([2]; second experiment, apple trees, 1 ppm spray, within one week): all of ten
- disrupting the communicative system of the ETC ([2]; solution containing 1 ppm): effective
- replicates in which colonies abandoned their authentic trail systems and followed the marked pathways ([3]; field, each replicate a different colony of 3rd-5th instar ETCs): 19 of 23
- competitiveness with authentic recruitment trails of the caterpillar ([3]; in vivo): fully competitive
